Test results as given in patent publication US20070134349A1, “Methods of treating hematological malignancies” (DUKE UNIVERSITY, priority 2005, published 2007).
Like-named read-outs stand apart in the source and are kept apart here.

Columns and labels:
[1] = industrial solvent of which MAA is a metabolite; cited from earlier work
[2] = in human; cited from earlier work
PML-RARα = biological target: T1, PML-RARα (Homo sapiens, UniProt P10276+P29590); assay: Western blot of PML-RARα and RARα in NB4 cells; type: cell-based; details: 3 days
T1 construct: PML portion (fusion partner, UniProt P29590); endogenous in cells; host or cells: NB4 cells
T1 sequence (P29590+P10276 with tags, fused parts or gaps): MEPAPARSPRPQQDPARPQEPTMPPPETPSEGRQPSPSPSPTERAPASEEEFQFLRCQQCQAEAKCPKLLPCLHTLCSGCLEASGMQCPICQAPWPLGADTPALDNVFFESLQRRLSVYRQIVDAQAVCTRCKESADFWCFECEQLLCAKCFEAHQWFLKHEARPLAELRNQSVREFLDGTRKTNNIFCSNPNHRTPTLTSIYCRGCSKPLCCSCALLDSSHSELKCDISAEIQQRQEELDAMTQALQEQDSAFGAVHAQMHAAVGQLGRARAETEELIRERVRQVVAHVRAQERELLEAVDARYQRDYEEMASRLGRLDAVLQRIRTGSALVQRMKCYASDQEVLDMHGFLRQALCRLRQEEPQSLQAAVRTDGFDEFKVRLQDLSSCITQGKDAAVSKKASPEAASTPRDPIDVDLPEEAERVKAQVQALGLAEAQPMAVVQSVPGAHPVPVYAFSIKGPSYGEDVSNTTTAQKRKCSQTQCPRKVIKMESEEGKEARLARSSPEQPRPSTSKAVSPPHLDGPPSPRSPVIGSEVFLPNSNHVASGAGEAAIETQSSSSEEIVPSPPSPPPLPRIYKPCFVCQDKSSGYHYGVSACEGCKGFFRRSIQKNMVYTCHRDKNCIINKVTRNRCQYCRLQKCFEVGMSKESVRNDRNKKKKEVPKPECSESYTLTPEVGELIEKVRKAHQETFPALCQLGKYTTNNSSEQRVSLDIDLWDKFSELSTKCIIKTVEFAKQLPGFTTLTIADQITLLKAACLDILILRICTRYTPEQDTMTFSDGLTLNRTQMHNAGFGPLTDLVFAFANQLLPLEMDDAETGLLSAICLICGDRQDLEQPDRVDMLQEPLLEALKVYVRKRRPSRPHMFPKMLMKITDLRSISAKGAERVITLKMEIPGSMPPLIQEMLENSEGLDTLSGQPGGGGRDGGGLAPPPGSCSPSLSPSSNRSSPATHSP
Description: (§1) Whole-cell lysates were prepared by washing the cells with PBS and resuspending them in 1 ml of lysis buffer (1× phosphate-buffered saline, 1 mM EDTA, 1.5 mg/ml of iodoacetamide, 100 μM sodium orthovanadate, 0.5% Triton X-100, 20 mM β-glycerolphosphate, 0.2 mM phenylmethylsulfonyl fluoride, and 1× complete protease inhibitor cocktail). After clarification by a 15-min centrifugation in a microcentrifuge at 4° C., the resulting supernatant was collected. 20-50 μg of protein extracts were separated on a 10% SDS-polyacrylamide gel and transferred to a nitrocellulose membrane. The membrane was blocked with 5% nonfat milk followed by incubation with antibodies. The immunocomplex was visualized by chemiluminescence.

H3 [3] = assay: Western blot of phospho-H3 (Ser-10) in NB4 cells; type: cell-based; details: NB4 cells, 24 h
Description: as §1

HL-60 cells = assay: CD11c expression by flow cytometry in HL-60 cells; type: cell-based; details: 48 h
Description: (§2) NB4 cells were provided by Dr. Ronald Evans (Salk Institute, La Jolla, Calif.). NB4-R4 cells were provided by Dr. Wilson Miller (McGill University, Montreal, Canada). HL-60, U-937, and Kasumi-1 cells were obtained from the American Type Culture Collection (Rockville, Md.). NB4 and NB4-R4 cells were grown in RPMI medium 1640 containing 10% fetal bovine serum. U-937 cells were grown in RPMI medium 1640 containing 10 mM HEPES, 1 mM sodium pyruvate, 4.5 g/L glucose, and 10% fetal bovine serum. HL-60 cells were grown in Iscove's Modified Dulbecco's medium containing 20% fetal bovine serum. Kasumi-1 cells were grown in RPMI medium 1640 containing 10 mM HEPES, 1 mM sodium pyruvate, 4.5 g/L glucose, and 20% fetal bovine serum.
(§3) To determine the percentage of cells that express differentiation markers, cells were washed once and resuspended in RPMI medium 1640 containing 3% fetal bovine serum. Phycoerythrin (PE)-conjugated CD11b, 5 Allophycocyanin (APC)-CD11c or control antibodies (BD Pharmingen, San Diego, Calif.) were added into cell suspension. After 30 minutes of incubation in the dark at 4° C., the cells were washed twice and resuspended in RPMI medium 1640 containing 7-amino actinomycin D (AAD) (for dead cell exclusion) and analyzed by FACScan (Becton Dickinson).

C/EBPβ = assay: Western blot of phospho-C/EBPβ (Thr-235) and C/EBPβ in NB4 cells; type: cell-based
Description: as §1

ERK1/2 [4] = assay: Western blot of phospho-ERK1/2 in NB4 cells; type: cell-based; details: 24 h
Description: as §1

histones H3 and H4 = assay: Western blot of acetylated histones H3 and H4 in NB4 cells; type: cell-based
Description: as §1

ERK1/2 [5] = assay: Western blot of phospho-ERK1/2 in U-937 cells; type: cell-based; details: higher concentrations, 18 h, total ERK1/2 unaffected
Description: as §1

[6] = in rats; cited from earlier work
[7] = in non-human primates; cited from earlier work
NB4 cells [8] = assay: Apoptosis by Annexin V binding (flow cytometry) in NB4 cells; type: cell-based; details: MAA 5 mM alone, NB4 cells, 3 days
Description: as §2
(§4) To determine the percentage of cells that undergo apoptosis, after incubation with APC-CD11c antibody in the dark at 4° C., cells were washed twice with PBS and incubated at room temperature for 15 min with PE-conjugated Annexin-V (BD Pharmingen) and 7-AAD in binding buffer (10 mM HEPES, pH 7.4, 140 mM NaCI, 2.5 mM CaCl2) and analyzed by FACScan for CD11c expression and Annexin V binding. Apoptotic cells are those that stained positive for Annexin V and negative for 7-AAD.

[9] = cited from earlier work
Kasumi-1 cells = assay: CD11c expression by flow cytometry in Kasumi-1 cells; type: cell-based; details: 3 days
Description: as §2, §3

U-937 cells [10] = assay: CD11c expression by flow cytometry in U-937 cells; type: cell-based; details: lower concentrations, 3 days
Description: as §2, §3

H3 [11] = assay: Western blot of acetyl-H3 and phospho-H3 in U-937 cells; type: cell-based; details: higher concentrations, 18 h
Description: as §1

U-937 cells [12] = assay: Annexin V binding in U-937 cells; type: cell-based; details: higher concentrations, 3 days
Description: as §2, §4

NB4 cells [13] = assay: Differentiation markers CD11c/CD11b by flow cytometry in NB4 cells; type: cell-based
Description: as §2, §3

RARE-TK-Luc reporter = RARE-TK-Luc reporter transient transfection in NB4 cells; type: cell-based; details: MAA 5 mM, 19 h
Description: Electroporation was performed using a Gene Pulser (BioRad, Hercules, Calif.) apparatus at 300 V and 960 μF capacity. […] Cells were harvested 19 h after transfection/treatment for luciferase and β-galactosidase activities.

[14] = cited from earlier work; remark: listed apart in the source

## COCCO [ethylene glycol monomethyl ether]
[1]
  developmental toxicity: developmental toxicant

## COCC(=O)O [MAA, methoxyacetic acid]
[2]
  elimination half-life: 77.1 h
PML-RARα
  degradation of RARα and accumulation of ΔPML-RARα: not observed
  expression level of PML-RARα fusion protein: no effect
H3 [3]; higher concentrations
  H3 phosphorylation (Ser-10): dramatically increased
H3 [3]; lower concentrations
  H3 phosphorylation (Ser-10): without effect
HL-60 cells
  differentiation as evidenced by expression of CD11c: induce differentiation
C/EBPβ; 17 h
  level of phosphorylated C/EBPβ at Thr-235: dose-dependent increase
C/EBPβ; lower concentrations, 24 h
  phosphorylation of C/EBPβ at Thr-235: maximal phosphorylation
ERK1/2 [4]; higher concentrations (no differentiating effects), total ERK not decreased
  levels of phosphorylated ERK: dramatically decreased
ERK1/2 [4]; lower concentrations
  constitutive levels of phosphorylated ERK: did not change
Histones H3 and H4; as shown in the applicant's study (histone acetylation)
  HDACI potency relative to BA: less potent HDACI than BA
Histones H3 and H4; concentrations optimal for differentiation, NB4 cells, 24 h
  H3 or H4 acetylation: no significant increase
Histones H3 and H4; concentrations required for apoptosis, NB4 cells, 24 h
  H3 and H4 acetylation: robust acetylation
ERK1/2 [5]
  activity of ERK1/2 (phospho-ERK1/2): downregulate
[6]
  elimination half-life: 13 to 18 h
[7]
  elimination half-life: 20 h
NB4 cells [8]
  apoptosis (Annexin V): does not induce significant amount of apoptosis
[9]; Shih et al 2001
  half-life in vivo: long
Kasumi-1 cells
  percentage of cells expressing CD11c: increased
U-937 cells [10]
  expression of the differentiation marker CD11c: increasing expression
H3 [11]
  H3 acetylation and phosphorylation: increase
U-937 cells [12]
  apoptosis (Annexin V): inducing apoptosis
NB4 cells [13]; MAA 1 mM added to ATO 0.1 to 1 μM, NB4 cells, 3 days
  percentage of cells expressing CD11c induced by ATO: significantly increases
NB4 cells [13]; MAA 1 mM alone, NB4 cells, 24 h, from 26%
  percentage of cells expressing CD11b: 51%
NB4 cells [13]; MAA 5 mM alone, NB4 cells, 3 days
  expression of CD11c and CD11b: can induce expression
NB4 cells [13]; MAA 5 mM, 21 h
  NB4 cell differentiation (CD11c): can induce NB4 cell differentiation
NB4 cells [13]; NB4 cells, 24 h, from 32%
  percentage of cells expressing CD11c: 41%
NB4 cells [13]; NB4 cells, 3 days
  percentage of NB4 cells expressing the myeloid differentiation markers CD11c and CD11b: comparable to ATRA
NB4 cells [13]; NB4 cells, FIG. 10
  NB4 differentiation: potent inducers
RARE-TK-Luc reporter
  transcription of RARE-containing reporter gene (RARE-TK-Luc): does not activate

## CC(/C=C/C(=O)NO)=C\[C@@H](C)C(=O)c1ccc(N(C)C)cc1 [TSA, trichostatin A]
[9]; in vivo
  metabolism: rapidly metabolized
[14]
  activity in vivo (anti-tumor): does not exhibit significant activity
